The subject of series [1] is male or female NMRI mice. The experiment in a line: Anorectic action: cumulated evaporated milk consumption after 24 h feed withdrawal. It counts as in vivo. The method, then:
The anorectic action was tested on male or female NMRI mice. After withdrawal of feed for 24 hours, the test preparation was administered via a stomach tube. Kept individually and with free access to drinking water, the animals were offered evaporated milk 30 minutes after the administration of the preparation. The consumption of evaporated milk was determined half-hourly for 3 hours and the general condition of the animals was observed. The measured milk consumption was compared with that of untreated control animals.

As for `NS(=O)(=O)c1ccc(C2=NC3(O)c4ccc(Cl)cc4CC3S2)cc1` (stereo not drawn) [Example 5, 4-(6-Chloro-3a-hydroxy-8,8a-dihydro-3aH-indeno[1,2-d]thiazol-2-yl)benzenesulfonamide], the melting point stood at 160 °C. Also, the “Reduction of the cumulated milk consumption in % of the control” value in series [1] (male animals, oral dose 50 mg/kg, compared with untreated control animals) is given as 95%. Besides, in series [1] (oral dose 50 mg/kg via stomach tube, N=5, milk consumption determined half-hourly for 3 hours), the “cumulated milk consumption of the treated animals” value is listed as 5/0.08 ml.

The melting point is the temperature, or range, at which the solid turns liquid.

Source of the values: patent US6444669B1, “8,8A-DIHYDROINDENO[1,2-D]THIAZOLE DERIVATIVES WHICH CARRY IN THE 2-POSITION A SUBSTITUENT HAVING A SULFONAMIDE STRUCTURE OR SULFONE STRUCTURE; PROCESSES FOR THEIR PREPARATION AND THEIR USE AS MEDICAMENTS” (Aventis Pharma Deutschland GmbH, priority 2000, dated 2002).
